Each structure is given as a SMILES string.

Common to all, as to type: in vitro ADME
For series [1], the system named is MDR1. In words: MDCK-MDR1 permeability assay. As to conditions: dog, MDCK-MDR1, MDCK-MDR1 cells; for efflux ratio at 2 h, 3 μM: Papp B→A divided by Papp A→B, read-out: Efflux ratio (ER); for Papp A→B at 2 h, 3 μM: test compound 3 μM, 2 hours at 37 degrees C, apical to basolateral. The method, then:
The bidirectional permeability (Apical to Basal and Basal to Apical directions) of test compounds in MDCK-MIDR1 cells were evaluated using MDCK-MIDR1 cells seeded in Solvo PreadyPort™ MDCK 96-well plate. Once the plate was received from ReadyCell (Barcelona, Spain), it was treated as per PreadyPort™ user's manual.
For the Apical to Basolateral (A→B) permeability, 80 μL of test compound (3 μM) co-dosed with LY (Lucifer Yellow) (100 μM) in HBSS (Hank's Balanced Salt Solution) assay buffer was added to the donor side (A) while 250 μL of HBSS buffer was added to the receiver side (B). For the Basolateral to Apical (B→A) permeability, 255 μL of test compound (3 μM) in HBSS assay buffer was added to the donor side (B) while 75 μL of HBSS buffer containing LY (100 μM) was added to the receiver side (A).
The plate was placed in an incubator set at 37 degrees C. After 10 minutes of pre-warming, 5 μL aliquot was taken from donor compartment and set aside as the dosing solution. The MDCK-MDR1 incubation plate was placed back into the incubator for 2 hours of incubation at 37 degrees C. After 2 hours of incubation, 25 μL and 5 μL aliquots were removed from the receiver and donor sides, respectively. To the 5 μL aliquots taken from the donor sides (before and after a 2-hour incubation) were diluted with 20 μL of the HBSS buffer. All samples were mixed with 150 μL with acetonitrile containing internal standard (IS) and 200 μL water, and analyzed by LC-MS/MS.
The apparent permeability (Papp) was calculated using the following formula: Papp=dQ/dt×1/A×C0 where: • dQ/dt: amount of translocated material over incubation time (nmol/s) • A: area of insert (0.14 cm^2 for PreadyPort™ MDR1-96) • C0: initial concentration of product applied in apical (A→B) or basal (B→A) compartment (nmol/mL)
The efflux ratio (ER) was measured by dividing the Papp (basolateral to apical direction) by Papp (apical to basolateral direction). It is a general measure of the involvement of active processes. An ER>2 is considered positive for active transport.
Percent recovery was measured using the following equation:
[formula] where: • VR: Volume of the receiver compartment (mL) • VD: Volume of the donor compartment (mL) • CN: Concentration of dosing solution (μM) collected after 10 minutes of incubation • CR^final: Receiver concentration at the end of the incubation (μM) • CD^final: Donor concentration at the end of the incubation (μM)
The data reported in Table 3 were obtained according to the MDCK-MDR1 permeability assay described above.

Series [2] can be described thus: Hepatocytes stability assay (human hepatocytes). To be noted: both sexes, human, cryopreserved hepatocytes, cryopreserved human hepatocytes (pool of 50 mixed gender); 1 μM test compound; 1×10^6 cell/mL; 37 degrees C; read-out: CLint (μL/min/million cells). The method, then: (§1) In vitro metabolic stability was assessed using cryopreserved hepatocytes from male Sprague Dawley rats and a pool of 50 mixed gender humans (BioIVT, Baltimore, MD). The incubation mixtures were prepared by mixing 250 μL of pre-warmed KHB (Krebs-Henseleit buffer) containing 2×10^6 cell/mL of hepatocytes with 250 μL of pre-warmed KHB buffer containing 2 μM of test compounds in a 48-well plate, giving a final concentration of 1 μM test compound (0.1% DMSO) and 1×10^6 cell/mL of hepatocytes. The reaction mixture was incubated at 37 degrees C. A 50 μL aliquot of incubation mixture was taken at time points (0, 15, 30, 60, 120 and 240 minutes) and transferred into a 96-well plate containing 300 μL ice-cold acetonitrile (containing 30 ng/mL of labetalol and 10 ng/mL of Naltrexone-d3 as internal standards) and immediately placed in ice to terminate the reaction. Samples were centrifuged, and supernatants were transferred into 96-well plates for liquid chromatography with tandem mass spectrometry (LC-MS/MS) analysis to monitor the depletion of the test compound.
(§2) Data was calculated as percent remaining by assuming zero-minute time point peak area ratio (analyte/IS) as 100% and dividing remaining time point peak area ratios by zero-minute time point peak area ratio. Data were fitted to a first-order decay model to determine half-life. From a plot of log (ln) peak area against time, the slope of the line was determined. Subsequently, half-life (T1/2) and intrinsic clearance (CLint) were calculated using the equations below: Elimination rate constant (k)=(−slope) Half-life (T1/2) min=0.693/k Intrinsic Clearance (CLint) (mL/min/million cells)=(V×0.693)/T1/2 V=incubation volume mL/number of cells The in vitro T1/2 was converted to in vitro intrinsic clearance (CLint,hep) in units of mL/min/kg using the formula shown below:
(§3) [formula] The in vitro intrinsic clearance (CLint,hep) was scaled to in vivo hepatic clearance (CL,hep) using the following equation which was adapted from a well-stirred model.
(§4) [formula] where Q is the liver blood flow and fu is the fraction unbound (assumed to be unity in this case). All parameters used in the calculation are shown below (Table 4).
(§5) The extraction ratio (ER) was calculated by dividing the hepatic clearance of a compound to the liver blood flow. The data reported in Table 5 were obtained according to the human hepatocytes stability assay described above.

For series [3], the system named is human hepatocytes. In words: Hepatocytes stability assay (human hepatocytes). As to conditions: human hepatocytes; scaled hepatic clearance divided by liver blood flow (well-stirred model, fu assumed unity). The procedure:
as §1, §2, §3, §4, §5

One may read the Papp A→B as the apparent permeability from the apical to the basolateral side of a cell layer. For the compound `Cc1cnc2c(c1)[C@H]1CC[C@H](CC1)OCC1[C@@H](NS(=O)(=O)C(C)C)CCCN1C(=O)CO2` (stereo in doubt) [Compound 34], in series [1], the efflux ratio at 2 h, 3 μM turned out to be 67 and the Papp A→B at 2 h, 3 μM worked out at 0.44 ×10⁻⁶ cm/s. For the same compound, the hepatocyte CLint at 1 μM in series [2] was 7.1 µL/min/1e6 cells. Besides, the “Extraction Ratio (ER)” value in series [3] came out at 0.52.
With `CC(C)(C)S(=O)(=O)N[C@H]1CCCN2CCOc3ccccc3[C@H]3CC[C@H](CC3)OCC12` (stereo in doubt) [Compound 56], in series [1], the efflux ratio at 2 h, 3 μM is 3.3 and the Papp A→B at 2 h, 3 μM came out at 1.7 ×10⁻⁶ cm/s. For the same compound, the hepatocyte CLint at 1 μM in series [2] stood at 69 µL/min/1e6 cells. In series [3], the “Extraction Ratio (ER)” value was 0.91.
For `O=C1COc2cccc(F)c2[C@H]2CC[C@H](CC2)OCC2[C@@H](NS(=O)(=O)C3CC3)CCCN12` (stereo in doubt) [Compound 74], in that order: 41, 0.62 ×10⁻⁶ cm/s, 15 µL/min/1e6 cells and 0.69.
With `Cc1ccc2c(c1C)[C@H]1CC[C@H](CC1)OCC1[C@@H](NS(=O)(=O)C(C)C)CCCN1C(=O)CO2` (stereo in doubt) [Compound 76], in series [1], the efflux ratio at 2 h, 3 μM was determined as 28 and the Papp A→B at 2 h, 3 μM was determined as 0.57 ×10⁻⁶ cm/s. Moreover, the hepatocyte CLint at 1 μM in series [2] came to 9.8 µL/min/1e6 cells. The “Extraction Ratio (ER)” value in series [3] stood at 0.59.
For `O=C1COc2ccccc2[C@H]2CC[C@H](CC2)OCC2[C@@H](NS(=O)(=O)CC3CC3)CCCN12` (stereo in doubt) [Compound 48], in that order: 60, 0.56 ×10⁻⁶ cm/s, 41 µL/min/1e6 cells and 0.86.
Regarding `Cc1ccnc2c1[C@H]1CC[C@H](CC1)OCC1[C@@H](NS(=O)(=O)C3CC3)CCCN1C(=O)CO2` (stereo in doubt) [Compound 62], in series [1], the efflux ratio at 2 h, 3 μM is more than 100 and the Papp A→B at 2 h, 3 μM stood at 0.092 ×10⁻⁶ cm/s. For the same compound, the hepatocyte CLint at 1 μM in series [2] worked out at 21 µL/min/1e6 cells. Also, the “Extraction Ratio (ER)” value in series [3] was determined as 0.76.
As for `CC(C)(C)S(=O)(=O)N[C@H]1CCCN2C(=O)COc3ccccc3[C@H]3CC[C@H](CC3)OCC12` (stereo in doubt) [Compound 44], in series [1], the efflux ratio at 2 h, 3 μM was found to be 7.8 and the Papp A→B at 2 h, 3 μM amounted to 2 ×10⁻⁶ cm/s. Besides, the hepatocyte CLint at 1 μM in series [2] stood at 46 µL/min/1e6 cells. The “Extraction Ratio (ER)” value in series [3] is 0.87.
Consider `CN(C)CCS(=O)(=O)N[C@H]1CCCN2C(=O)COc3ccccc3[C@H]3CC[C@H](CC3)OCC12` (stereo in doubt) [Compound 39], for which, in series [1], the efflux ratio at 2 h, 3 μM was more than 100 and the Papp A→B at 2 h, 3 μM was less than 0.086 ×10⁻⁶ cm/s. The hepatocyte CLint at 1 μM in series [2] amounted to 20 µL/min/1e6 cells. The “Extraction Ratio (ER)” value in series [3] is on record as 0.75.
For `CC1(S(=O)(=O)N[C@H]2CCCN3C(=O)COc4ccccc4C4CCC(CC4)OC[C@@H]23)CC1` (stereo in doubt) [Compound 8], in that order: 3.6, 1.8 ×10⁻⁶ cm/s, 31 µL/min/1e6 cells and 0.82.
Turning to `O=S(=O)(N[C@H]1CCCN2CCOc3ccccc3[C@H]3CC[C@H](CC3)OCC12)C1CCC1` (stereo in doubt) [Compound 57], in series [1], the efflux ratio at 2 h, 3 μM was 6 and the Papp A→B at 2 h, 3 μM stood at 1.7 ×10⁻⁶ cm/s. Also, the hepatocyte CLint at 1 μM in series [2] came to 65 µL/min/1e6 cells. For the same compound, the “Extraction Ratio (ER)” value in series [3] is on record as 0.91.
The corresponding values for `Cc1cccc2c1[C@H]1CC[C@H](CC1)OCC1[C@@H](NS(=O)(=O)C(C)C)CCN1C(=O)CO2` (stereo in doubt) [Compound 79] are 3.8, 5.7 ×10⁻⁶ cm/s, 46 µL/min/1e6 cells and 0.87.
The corresponding values for `Cc1ncnc2c1[C@H]1CC[C@H](CC1)OCC1[C@@H](NS(=O)(=O)C3CC3)CCN1C(=O)CO2` (stereo in doubt) [Compound 83] are 46, 0.85 ×10⁻⁶ cm/s, 2.6 µL/min/1e6 cells and 0.28.
With `CS(=O)(=O)N[C@H]1CCCN2C(=O)COc3ccc(C#N)cc3[C@H]3CC[C@H](CC3)OCC12` (stereo in doubt) [Compound 46], in series [1], the efflux ratio at 2 h, 3 μM is 81 and the apical-to-basolateral permeability (Papp A→B) at 2 h, 3 μM was 0.18 ×10⁻⁶ cm/s. For the same compound, in series [2], the hepatocyte CLint at 1 μM is 2.8 µL/min/1e6 cells. In series [3], the “Extraction Ratio (ER)” value amounted to 0.29.
Regarding `Cc1c(Cl)ccc2c1[C@H]1CC[C@H](CC1)OCC1[C@@H](NS(C)(=O)=O)CCCN1C(=O)CO2` (stereo in doubt) [Compound 31], in series [1], the efflux ratio at 2 h, 3 μM is more than 100 and the Papp A→B at 2 h, 3 μM came to 0.32 ×10⁻⁶ cm/s. In addition, the hepatocyte CLint at 1 μM in series [2] was determined as 3.9 µL/min/1e6 cells. Besides, in series [3], the “Extraction Ratio (ER)” value came out at 0.37.
For `Cc1c(Cl)ccc2c1[C@H]1CC[C@H](CC1)OCC1[C@@H](NS(=O)(=O)C3CC3)CCCN1C(=O)CO2` (stereo in doubt) [Compound 75], in that order: 65, 0.3 ×10⁻⁶ cm/s, 11 µL/min/1e6 cells and 0.61.
For `CC(C)S(=O)(=O)N[C@H]1CCCN2C(=O)COc3ccc(Cl)cc3[C@H]3CC[C@H](CC3)OCC12` (stereo in doubt) [Compound 26], in that order: more than 100, less than 0.12 ×10⁻⁶ cm/s, 5.1 µL/min/1e6 cells and 0.43.
`Cc1ccc2c(c1C)[C@H]1CC[C@H](CC1)OCC1[C@@H](NS(C)(=O)=O)CCCN1C(=O)CO2` (stereo in doubt) [Compound 78]: in series [1], the efflux ratio at 2 h, 3 μM came out at 74 and the Papp A→B at 2 h, 3 μM came to 0.41 ×10⁻⁶ cm/s. For the same compound, in series [2], the hepatocyte CLint at 1 μM is 7.2 µL/min/1e6 cells. For the same compound, the “Extraction Ratio (ER)” value in series [3] is reported as 0.52.
The corresponding values for `O=S(=O)(CC1CC1)N[C@H]1CCCN2CCOc3ccccc3[C@H]3CC[C@H](CC3)OCC12` (stereo in doubt) [Compound 59] are 5.4, 1.67 ×10⁻⁶ cm/s, 62 µL/min/1e6 cells and 0.90.
The corresponding values for `Cc1ccc2c(c1)OCC(=O)N1CCC[C@H](NS(C)(=O)=O)C1CO[C@H]1CC[C@@H]2CC1` (stereo in doubt) [Compound 40] are more than 100, less than 0.18 ×10⁻⁶ cm/s, 6.4 µL/min/1e6 cells and 0.49.
